Measured values taken from ChEMBL document CHEMBL5634133, “Indirubin derivatives as bifunctional molecules inducing DNA damage and targeting PARP for the treatment of cancer” (Eur J Med Chem, 2023).
Activity calls are given as the source filed them. No cut-off for these calls is given here.

Key:
HCT-116 [1] = test: Antiproliferative activity against human HCT-116 cells assessed as inhibition of cell viability incubated for 72 hrs by CCK8 assay; type: functional, cell-based; conditions: HCT-116, 72 h
MCF7 [2] = test: Antiproliferative activity against human MCF7 cells assessed as inhibition of cell viability incubated for 72 hrs by CCK8 assay; type: functional, cell-based; conditions: MCF7, 72 h
A549 [3] = test: Antiproliferative activity against human A549 cells assessed as inhibition of cell viability incubated for 72 hrs by CCK8 assay; type: functional, cell-based; conditions: A549, 72 h
NCM460 [4] = test: Antiproliferative activity against human NCM460 cells assessed as inhibition of cell viability incubated for 72 hrs by CCK8 assay; type: functional, cell-based; conditions: NCM460, 72 h
MV4-11 [5] = test: Antiproliferative activity against human MV4-11 cells assessed as inhibition of cell viability incubated for 72 hrs by CCK8 assay; type: functional, cell-based; conditions: MV4-11, 72 h
[6] = molecular target: T1, Poly [ADP-ribose] polymerase 1 (Homo sapiens, UniProt P09874); conditions: dose 10.0 nM, time 10.0 min
T1 sequence (P09874 whole entry): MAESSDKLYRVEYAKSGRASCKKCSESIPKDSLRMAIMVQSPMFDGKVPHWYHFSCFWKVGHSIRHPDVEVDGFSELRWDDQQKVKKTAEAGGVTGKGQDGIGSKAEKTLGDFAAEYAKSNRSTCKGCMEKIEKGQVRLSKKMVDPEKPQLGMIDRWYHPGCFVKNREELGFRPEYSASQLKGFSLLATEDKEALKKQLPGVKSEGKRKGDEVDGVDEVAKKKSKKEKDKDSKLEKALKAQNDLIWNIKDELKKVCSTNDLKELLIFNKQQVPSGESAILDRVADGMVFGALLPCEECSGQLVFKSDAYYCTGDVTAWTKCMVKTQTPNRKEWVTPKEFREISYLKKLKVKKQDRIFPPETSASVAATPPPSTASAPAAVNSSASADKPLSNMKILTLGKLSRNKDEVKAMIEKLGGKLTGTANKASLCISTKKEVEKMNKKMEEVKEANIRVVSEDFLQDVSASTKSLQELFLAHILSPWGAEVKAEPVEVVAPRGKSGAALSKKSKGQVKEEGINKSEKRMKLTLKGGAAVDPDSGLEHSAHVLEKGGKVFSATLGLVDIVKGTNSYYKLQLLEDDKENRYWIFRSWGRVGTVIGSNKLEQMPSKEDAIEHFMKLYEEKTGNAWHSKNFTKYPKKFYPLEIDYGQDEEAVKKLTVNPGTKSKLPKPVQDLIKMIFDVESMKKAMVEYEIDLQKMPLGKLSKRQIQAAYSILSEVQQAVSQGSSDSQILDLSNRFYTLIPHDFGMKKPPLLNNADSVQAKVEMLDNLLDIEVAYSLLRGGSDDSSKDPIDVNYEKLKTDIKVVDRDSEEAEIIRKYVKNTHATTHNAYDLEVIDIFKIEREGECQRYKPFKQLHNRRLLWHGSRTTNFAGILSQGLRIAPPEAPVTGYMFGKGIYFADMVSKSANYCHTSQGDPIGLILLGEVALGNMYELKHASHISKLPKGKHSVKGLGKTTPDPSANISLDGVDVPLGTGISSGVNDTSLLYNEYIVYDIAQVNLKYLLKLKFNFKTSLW

[7] = molecular target: T1, Poly [ADP-ribose] polymerase 1; test: Inhibition of PARP1 (unknown origin) incubated for 10 mins by chemiluminescence assay
MCF7 [8] = test: cells; conditions: Homo sapiens, MCF7, 72 h
Description: Antiproliferative activity against human MCF7 cells assessed as inhibition of cell viability incubated for 72 hrs in presence of IDM by CCK8 assay

A549 [9] = test: cells; conditions: Homo sapiens, A549, 72 h
Description: Antiproliferative activity against human A549 cells assessed as inhibition of cell viability incubated for 72 hrs in presence of IDM by CCK8 assay

HCT-116 [10] = test: cells; conditions: Homo sapiens, HCT-116, 72 h
Description: Antiproliferative activity against human HCT-116 cells assessed as inhibition of cell viability incubated for 72 hrs in presence of IDM by CCK8 assay

MV4-11 [11] = test: Antiproliferative activity against human MV4-11 cells assessed as inhibition of cell viability incubated for 72 hrs in presence of IDM by CCK8 assay; type: functional, cell-based; conditions: MV4-11, 72 h
NCM460 [12] = test: cells; conditions: Homo sapiens, NCM460, 72 h
Description: Antiproliferative activity against human NCM460 cells assessed as inhibition of cell viability incubated for 72 hrs in presence of IDM by CCK8 assay

HCT-116 [13] = test: Induction of DNA damage in human HCT-116 cells assessed as increase in gammaH2AX protein level at 1 uM incubated for 48 hrs in presence of IDM by Western blotting analysis; type: cell-based
HCT-116 [14] = test: Antitumor activity against human HCT-116 cells xenografted in BALB/c nude mouse assessed as tumor growth inhibition at 20 mg/kg, ip administered for 14 days relative to control; type: functional; conditions: time 14 day

Row | Compound | IC50 (HCT-116 [1]) | IC50 (MCF7 [2]) | IC50 (A549 [3]) | IC50 (MV4-11 [5]) | inhibition [6] | IC50 [7] | IC50 (MCF7 [8]) | IC50 (A549 [9]) | IC50 (HCT-116 [10]) | IC50 (MV4-11 [11]) | IC50 (NCM460 [12]) | IC50 (NCM460 [4]) | Activity (HCT-116 [13]) | TGI (HCT-116 [14])
1 | NC(=O)c1cccc2cn(-c3ccc([C@@H]4CCCN(C(=O)CCCCO/N=C5/C(=C6/C(=O)Nc7ccccc76)Nc6ccccc65)C4)cc3)nc12 | 27.3 µM | 41.9 µM | 48.2 µM | 36.2 µM | – | – | – | – | – | – | – | > 60 µM | – | –
2 | O=C1Nc2ccccc2/C1=C1/Nc2ccccc2/C1=N\OCCCCCCC(=O)N1CCN(C(=O)c2ccc(Cc3n[nH]c(=O)c4ccccc34)cc2F)CC1 | 39.2 µM | > 50 µM | > 50 µM | > 50 µM | – | – | – | – | – | – | – | > 60 µM | – | –
3 | O=C1Nc2ccccc2/C1=C1/Nc2ccccc2/C1=N\OCCCCCCNC(=O)c1cc(Cc2n[nH]c(=O)c3ccccc23)ccc1F | 47.2 µM | > 50 µM | > 50 µM | > 50 µM | – | – | – | – | – | – | – | > 60 µM | – | –
4 | NC(=O)c1cccc2cn(-c3ccc([C@@H]4CCCN(C(=O)CCCCCO/N=C5/C(=C6/C(=O)Nc7ccccc76)Nc6ccccc65)C4)cc3)nc12 | 29.4 µM | > 50 µM | > 50 µM | 47 µM | – | – | – | – | – | – | – | > 60 µM | – | –
5 | O=C1Nc2ccccc2/C1=C1/Nc2ccccc2/C1=N\OCc1ccc(C(=O)N2CCN(C(=O)c3cc(Cc4n[nH]c(=O)c5ccccc45)ccc3F)CC2)cc1 | 27.4 µM | 43.8 µM | 42.7 µM | 33.1 µM | – | – | – | – | – | – | – | > 60 µM | – | –
6 | O=C1Nc2ccccc2/C1=C1/Nc2ccccc2/C1=N\OCCCCCC(=O)N1CCN(C(=O)c2ccc(Cc3n[nH]c(=O)c4ccccc34)cc2F)CC1 | 32.4 µM | > 50 µM | > 50 µM | > 50 µM | – | – | – | – | – | – | – | > 60 µM | – | –
7 | O=C1Nc2ccccc2/C1=C1/Nc2ccccc2/C1=N\OCCCCCCCC(=O)N1CCN(C(=O)c2ccc(Cc3n[nH]c(=O)c4ccccc34)cc2F)CC1 | 43.9 µM | > 50 µM | > 50 µM | > 50 µM | – | – | – | – | – | – | – | > 60 µM | – | –
8 | NC(=O)c1cccc2cn(-c3ccc([C@@H]4CCCN(C(=O)CCCCCCCO/N=C5/C(=C6/C(=O)Nc7ccccc76)Nc6ccccc65)C4)cc3)nc12 | > 50 µM | > 50 µM | > 50 µM | > 50 µM | – | – | – | – | – | – | – | > 60 µM | – | –
9 | NC(=O)c1cccc2cn(-c3ccc([C@@H]4CCCN(C(=O)c5ccc(CO/N=C6/C(=C7/C(=O)Nc8ccccc87)Nc7ccccc76)cc5)C4)cc3)nc12 | 31.3 µM | 47.3 µM | 49.1 µM | 39.6 µM | – | – | – | – | – | – | – | > 60 µM | – | –
10 | O=C1Nc2ccc(Cl)cc2/C1=C1/Nc2ccccc2/C1=N\OCCCC(=O)N1CCN(C(=O)c2cc(Cc3n[nH]c(=O)c4ccccc34)ccc2F)CC1 | 28.3 µM | > 50 µM | > 50 µM | > 50 µM | – | – | – | – | – | – | – | > 60 µM | – | –
11 | O=C1Nc2ccccc2/C1=C1/Nc2ccccc2/C1=N\OCC1CCN(C(=O)c2cc(Cc3n[nH]c(=O)c4ccccc34)ccc2F)CC1 | 45 µM | > 50 µM | > 50 µM | 47.5 µM | – | – | – | – | – | – | – | > 60 µM | – | –
12 | NC(=O)c1cccc2cn(-c3ccc([C@@H]4CCCN(C(=O)CCCCCCO/N=C5/C(=C6/C(=O)Nc7ccccc76)Nc6ccccc65)C4)cc3)nc12 | > 50 µM | > 50 µM | > 50 µM | > 50 µM | – | – | – | – | – | – | – | > 60 µM | – | –
13 | O=C1Nc2ccccc2/C1=C1/Nc2ccccc2/C1=N\OCCCCCCCNC(=O)c1cc(Cc2n[nH]c(=O)c3ccccc23)ccc1F | > 50 µM | > 50 µM | > 50 µM | > 50 µM | – | – | – | – | – | – | – | > 60 µM | – | –

Stronger by IC50 (HCT-116 [1]), values ahead:

Row | IC50 (HCT-116 [1]) | IC50 (MCF7 [2]) | IC50 (A549 [3]) | IC50 (MV4-11 [5]) | inhibition [6] | IC50 [7] | IC50 (MCF7 [8]) | IC50 (A549 [9]) | IC50 (HCT-116 [10]) | IC50 (MV4-11 [11]) | IC50 (NCM460 [12]) | Compound | IC50 (NCM460 [4]) | Activity (HCT-116 [13]) | TGI (HCT-116 [14])
14 | 25.5 µM | > 50 µM | > 50 µM | > 50 µM | – | – | – | – | – | – | – | O=C1Nc2ccccc2/C1=C1/Nc2ccccc2/C1=N\OCCCCCNC(=O)c1cc(Cc2n[nH]c(=O)c3ccccc23)ccc1F | > 60 µM | – | –
15 | 21.1 µM | 44.3 µM | 37.6 µM | 38.7 µM | – | – | – | – | – | – | – | O=C1Nc2ccccc2/C1=C1/Nc2ccccc2/C1=N\OCCCCC(=O)N1CCN(C(=O)c2ccc(Cc3n[nH]c(=O)c4ccccc34)cc2F)CC1 | > 60 µM | – | –
16 | 19.3 µM | 38.7 µM | 34.7 µM | 23.8 µM | 54.9% | 0.00225 µM | – | – | – | – | – | O=C1Nc2ccc(F)cc2/C1=C1/Nc2ccccc2/C1=N\OCCCC(=O)N1CCN(C(=O)c2cc(Cc3n[nH]c(=O)c4ccccc34)ccc2F)CC1 | > 60 µM | – | –
17 | 17.8 µM | 32.4 µM | 25 µM | 21.6 µM | 55.8% | 0.00446 µM | – | – | – | – | – | O=C1Nc2ccccc2/C1=C1/Nc2ccc(F)cc2/C1=N\OCCCC(=O)N1CCN(C(=O)c2cc(Cc3n[nH]c(=O)c4ccccc34)ccc2F)CC1 | > 60 µM | – | –
18 | 13.7 µM | 6.89 µM | 8.22 µM | 14.9 µM | – | – | – | – | – | – | – | O=C1Nc2ccccc2/C1=C1/Nc2ccccc2/C1=N\OCCCNC(=O)c1cc(Cc2n[nH]c(=O)c3ccccc23)ccc1F | 9.37 µM | – | –
19 | 11.1 µM | 93.9 µM | 29.5 µM | 13.4 µM | 50.6% | – | 2.33 µM | 6.06 µM | 1.37 µM | 2.36 µM | 20.2 µM | O=C(c1cc(Cc2n[nH]c(=O)c3ccccc23)ccc1F)N1CCN(C(=O)C2CC2)CC1 [OLAPARIB] | 67.2 µM | Active | 32.5%
20 | 8.43 µM | 29.2 µM | 27.6 µM | 11.4 µM | 53.8% | 0.00466 µM | – | – | – | – | – | O=C1Nc2ccc(Br)cc2/C1=C1/Nc2ccccc2/C1=N\OCCCC(=O)N1CCN(C(=O)c2cc(Cc3n[nH]c(=O)c4ccccc34)ccc2F)CC1 | > 60 µM | – | –
21 | 8.21 µM | 48.7 µM | 47.2 µM | 48.4 µM | 31.1% | – | – | – | – | – | – | O=C1Nc2ccc(Br)cc2/C1=C1/Nc2ccc(Br)cc2/C1=N\OCCCC(=O)N1CCN(C(=O)c2cc(Cc3n[nH]c(=O)c4ccccc34)ccc2F)CC1 | > 60 µM | – | –
22 | 3.1 µM | 1.82 µM | 4.41 µM | 11.7 µM | – | – | – | – | – | – | – | O=C1Nc2ccccc2/C1=C1/Nc2ccccc2/C1=N\OCCCCNC(=O)c1cc(Cc2n[nH]c(=O)c3ccccc23)ccc1F | 8.04 µM | – | –
23 | 1.81 µM | 11.8 µM | 12.6 µM | 3.82 µM | – | – | 1.41 µM | 4.17 µM | 0.83 µM | 1.69 µM | 21.1 µM | NC(=O)c1cccc2cn(-c3ccc([C@@H]4CCCNC4)cc3)nc12 [NIRAPARIB] | 53.7 µM | – | –
24 | 0.75 µM | 45.3 µM | 42.3 µM | 44.4 µM | 49.9% | – | – | – | – | – | – | O=C1Nc2ccc(F)cc2/C1=C1/Nc2ccc(F)cc2/C1=N\OCCCC(=O)N1CCN(C(=O)c2cc(Cc3n[nH]c(=O)c4ccccc34)ccc2F)CC1 | > 60 µM | – | –
